# From patent US11173145B2, “Compounds useful as inhibitors of indoleamine 2,3-dioxygenase and/or tryptophan dioxygenase” (Board of Regents, The University of Texas System, priority 2017, dated 2021)
# pIC50: −log10 of the molar value.
# Molecular target: T1, IDO1 (Homo sapiens, UniProt P14902)
# T1 construct: endogenous in cells; host or cells: HeLa cells (ATCC), IFNgamma-induced
# Test: IDO1 cell-based assay (HeLa cells, IFNgamma-induced, N-formylkynurenine/L-tryptophan by RFMS)
# Conditions: 10 ng/mL IFNgamma, 24 hours
# Description: HeLa cells were obtained from the American Type Culture Collection (ATCC) and maintained in DMEM media containing 10% FBS. Cells (7,000/well) were seeded onto a 384 well plate in 50 μL of media and incubated at 37° C., 5% CO2 overnight. Cell media was aspirated, fresh media containing 10 ng/mL IFNgamma was added, and cells were incubated in absence or presence of various concentrations of test compound (final 0.5% DMSO) for 24 hours. Aliquots of the cell conditioned media were removed from the cell plate, and mixed with an equal volume of 200 mM ZnSO4 to precipitate media containing proteins. Two volumes of acetonitrile were added, mixed, and samples were then centrifuged at 2250G for 20 minutes at 4° C. Aliquots of the supernatant were diluted 1:10 in 0.1% formic acid containing 3 μM of deuterated Tryptophan as an internal standard.
# Samples were analyzed via RFMS to quantify N-Formyl Kynurenine (AUC) and L-tryptophan (AUC). A C18 cartridge was used with mobile phases of 0.1% Formic Acid and 80% ACN/0.1% Formic Acid under isocratic conditions. Dose-response curves were analyzed using IC50 regression curve fitting (GeneData Screener). […] Cell viability was also assessed using the Cell Titer Glo Kit (Promega) following manufacturer recommendation.
# T1 sequence (P14902 whole entry): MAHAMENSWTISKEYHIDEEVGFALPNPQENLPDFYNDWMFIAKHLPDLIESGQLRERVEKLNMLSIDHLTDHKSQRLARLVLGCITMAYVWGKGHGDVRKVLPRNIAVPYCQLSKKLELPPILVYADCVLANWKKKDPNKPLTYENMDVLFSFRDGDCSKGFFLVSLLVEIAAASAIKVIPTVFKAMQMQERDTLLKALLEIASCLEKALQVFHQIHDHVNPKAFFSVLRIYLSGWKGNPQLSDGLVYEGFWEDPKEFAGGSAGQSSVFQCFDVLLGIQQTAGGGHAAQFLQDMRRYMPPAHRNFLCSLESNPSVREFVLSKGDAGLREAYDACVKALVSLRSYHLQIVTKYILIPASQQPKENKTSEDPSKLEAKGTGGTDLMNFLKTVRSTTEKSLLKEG
row,Structure (SMILES),pIC50
1,"CN(C(=O)Cc1ccc(Cl)cc1)[C@H]1[C@@H]2C[C@@H](Oc3cnnc4ccccc34)C[C@@H]21 [Compound 86, 2-(4-chlorophenyl)-N-((1R,3s,5S,6r)-3-(cinnolin-4-yloxy)bicyclo[3.1.0]hexan-6-yl)-N-methylacetamide]",5.30 to 5.70
2,"CCC(NC(=O)c1ccc(Cl)cc1)[C@H]1[C@@H]2C[C@@H](Oc3cc(F)ccc3F)C[C@@H]21 (stereo partly drawn) [Compound 42, 4-chloro-N-(1-((1R,3s,5S,6r)-3-(2,5-difluorophenoxy)bicyclo[3.1.0]hexan-6-yl)propyl)benzamide]",> 6.70
3,"C=C(C)c1cn([C@@H]2C[C@@H]3[C@H](C2)[C@H]3C(CC)NC(=O)c2ccc(Cl)cc2)nn1 (stereo partly drawn) [Compound 262, 4-chloro-N-(1-((1R,3S,5S,6r)-3-(4-(propen-2-yl)-1H-1,2,3-triazol-1-yl)bicyclo[3.1.0]hexan-6-yl)propyl)benzamide]",> 6.70
4,"O=C(NC[C@H]1[C@H]2C[C@H](Oc3cc(C(F)(F)F)nc4ccc(F)cc34)C[C@@H]12)c1ccc(Cl)cc1 [Compound 24, 4-chloro-N-(((1R,3s,5S,6s)-3-((6-fluoro-2-(trifluoromethyl)quinolin-4-yl)oxy)bicyclo[3.1.0]hexan-6-yl)methyl)benzamide]",5.70 to 6.70
5,"CC[C@@H](NC(=O)c1ccnc(C)c1)[C@H]1[C@@H]2C[C@@H](n3cnc4cc(F)c(F)cc43)C[C@@H]21 [Compound 308, N-((R)-1-((1R,3S,5S,6r)-3-(5,6-difluoro-1H-benzo[d]imidazol-1-yl)bicyclo[3.1.0]hexan-6-yl)propyl)-2-methylisonicotinamide]",5.70 to 6.70
6,"CC(NC(=O)c1ccc(C#N)cc1)[C@H]1[C@@H]2C[C@@H](n3ncc(=O)c4ccccc43)C[C@@H]21 (stereo partly drawn) [Compound 136, 4-cyano-N-(1-((1R,3s,5S,6r)-3-(4-oxocinnolin-1(4H)-yl)bicyclo[3.1.0]hexan-6-yl)ethyl)benzamide]",5.70 to 6.70
7,"CC[C@H](NC(=O)c1ccc(Cl)cc1)[C@H]1[C@@H]2C[C@@H](Oc3cnnc4ccccc34)C[C@@H]21 [Compound 103, 4-chloro-N-((S)-1-((1R,3R,5S,6r)-3-(cinnolin-4-yloxy)bicyclo[3.1.0]hexan-6-yl)propyl)benzamide]",> 6.70
8,"CCC(NC(=O)c1ccc(Cl)cc1)[C@H]1[C@@H]2C[C@@H](n3cc(CO)nn3)C[C@@H]21 (stereo partly drawn) [Compound 146, 4-chloro-N-(1-((1R,3s,5S,6r)-3-(4-(hydroxymethyl)-1H-1,2,3-triazol-1-yl)bicyclo[3.1.0]hexan-6-yl)propyl)benzamide]",5.70 to 6.70
9,"CC(C(=O)Nc1ccc(Cl)cc1)[C@H]1[C@@H]2C[C@@H](Oc3cnnc4ccc(F)cc34)C[C@@H]21 (stereo partly drawn) [Compound 340, N-(4-chlorophenyl)-2-((1R,3s,5S,6r)-3-((6-fluorocinnolin-4-yl)oxy)bicyclo[3.1.0]hexan-6-yl)propanamide]",> 6.70
10,"O=C(NC[C@@H]1[C@H]2C[C@H](n3cnc4cc(F)c(F)cc43)C[C@@H]12)c1cccc(F)c1 [Compound 320, N-(((1R,3s,5S,6r)-3-(5,6-difluoro-1H-benzo[d]imidazol-1-yl)bicyclo[3.1.0]hexan-6-yl)methyl)-3-fluorobenzamide]",5.70 to 6.70
11,"CCC(NC(=O)c1ccc(Cl)cc1)[C@H]1[C@@H]2C=CC[C@@H]21 (stereo partly drawn) [Compound 113, N-(1-((1R,5S,6R)-bicyclo[3.1.0]hex-2-en-6-yl)propyl)-4-chlorobenzamide]",5.70 to 6.70
12,"CCC(NC(=O)c1ccc(Cl)cc1)[C@H]1[C@@H]2C[C@@H](N3C(=O)CC(C)(C)C3=O)C[C@@H]21 (stereo partly drawn) [Compound 122, 4-chloro-N-(1-((1R,3s,5S,6r)-3-(3,3-dimethyl-2,5-dioxopyrrolidin-1-yl)bicyclo[3.1.0]hexan-6-yl)propyl)benzamide]",5.30 to 5.70
13,"CC(NC(=O)c1ccc(Cl)cc1)[C@H]1[C@@H]2C[C@@H](Oc3ncnc4ccc(F)cc34)C[C@@H]21 (stereo partly drawn) [Compound 64, 4-chloro-N-(1-((1R,3s,5S,6r)-3-((6-fluoroquinazolin-4-yl)oxy)bicyclo[3.1.0]hexan-6-yl)ethyl)benzamide]",> 6.70
14,"CCC(NC(=O)c1ccc(Cl)cc1)[C@H]1[C@@H]2C[C@@H](Oc3cccc4cccnc34)C[C@@H]21 (stereo partly drawn) [Compound 43, 4-chloro-N-(1-((1R,3s,5S,6r)-3-(quinolin-8-yloxy)bicyclo[3.1.0]hexan-6-yl)propyl)benzamide]",> 6.70
15,"CCC(NC(=O)c1ccc(Cl)cc1)[C@H]1[C@@H]2C[C@@H](n3cc(C(C)(C)O)nn3)C[C@@H]21 (stereo partly drawn) [Compound 141, 4-chloro-N-((R)-1-((1R,3S,5S,6r)-3-(4-(2-hydroxypropan-2-yl)-1H-1,2,3-triazol-1-yl)bicyclo[3.1.0]hexan-6-yl)propyl)benzamide]",5.70 to 6.70
16,"CC[C@@H](NC(=O)c1ccc(Cl)cc1)[C@H]1[C@@H]2C[C@@H](Nc3cc(Cl)ccc3[N+](=O)[O-])C[C@@H]21 [Compound 284, 4-chloro-N-((R)-1-((1R,3S,5S,6r)-3-((5-chloro-2-nitrophenyl)amino)bicyclo[3.1.0]hexan-6-yl)propyl)benzamide]",> 6.70
17,"CC[C@@H](NC(=O)c1ccc(C#N)cc1)[C@H]1[C@@H]2C[C@@H](n3nnc(C(=O)OC)c3C(=O)OC)C[C@@H]21 [Compound 300, dimethyl 1-((1R,3S,5S,6r)-6-((R)-1-(4-cyanobenzamido)propyl)bicyclo[3.1.0]hexan-3-yl)-1H-1,2,3-triazole-4,5-dicarboxylate]",> 6.70
18,"N#Cc1cccc(C(=O)NC[C@@H]2[C@H]3C[C@H](n4cnc5cc(F)c(F)cc54)C[C@@H]23)c1 [Compound 321, 3-cyano-N-(((1R,3s,5S,6r)-3-(5,6-difluoro-1H-benzo[d]imidazol-1-yl)bicyclo[3.1.0]hexan-6-yl)methyl)benzamide]",5.70 to 6.70
19,"CCC(NC(=O)c1ccc(Cl)cc1)[C@H]1[C@@H]2C[C@@H](Oc3cnnc4ccccc34)C[C@@H]21 (stereo partly drawn) [Compound 138, 4-chloro-N-(1-((1R,3r,5S,6r)-3-(cinnolin-4-yloxy)bicyclo[3.1.0]hexan-6-yl)propyl)benzamide]",> 6.70
20,"CC(NC(=O)c1ccc(C#N)cc1)[C@H]1[C@@H]2C[C@@H](Oc3cnnc4ccccc34)C[C@@H]21 (stereo partly drawn) [Compound 135, N-(1-((1R,3s,5S,6r)-3-(cinnolin-4-yloxy)bicyclo[3.1.0]hexan-6-yl)ethyl)-4-cyanobenzamide]",5.70 to 6.70
21,"CCC(NC(=O)c1ccc(Cl)cc1)[C@H]1[C@@H]2C[C@@H](NC(=O)c3cccnn3)C[C@@H]21 (stereo partly drawn) [Compound 151, N-((1R,3s,5S,6r)-6-(1-(4-chlorobenzamido)propyl)bicyclo[3.1.0]hexan-3-yl)pyridazine-3-carboxamide]",> 6.70
22,"CCC(NC(=O)c1ccc(Cl)cn1)C1[C@H]2CC(Oc3cnnc4ccccc34)C[C@@H]12 (stereo partly drawn) [Compound 77, 5-chloro-N-(1-((1R,5S)-3-(cinnolin-4-yloxy)bicyclo[3.1.0]hexan-6-yl)propyl)picolinamide]",5.70 to 6.70
23,"O=C(Cc1ccc(Cl)cc1)N[C@H]1[C@@H]2C[C@@H](Oc3ncnc4ccc(F)cc34)C[C@@H]21 [Compound 61, 2-(4-chlorophenyl)-N-((1R,3s,5S,6r)-3-((6-fluoroquinazolin-4-yl)oxy)bicyclo[3.1.0]hexan-6-yl)acetamide]",> 6.70
24,"CCC(NC(=O)c1ccc(Cl)cc1)[C@H]1[C@@H]2C[C@@H](Oc3ccc(F)nc3)C[C@@H]21 (stereo partly drawn) [Compound 18, 4-chloro-N-(1-((1R,3s,5S,6r)-3-((6-fluoropyridin-3-yl)oxy)bicyclo[3.1.0]hexan-6-yl)propyl)benzamide]",> 6.70
25,"CC[C@@H](NC(=O)NC1COC1)[C@H]1[C@@H]2C[C@@H](n3cnc4cc(F)c(F)cc43)C[C@@H]21 [Compound 353, 1-((R)-1-((1R,3S,5S,6r)-3-(5,6-difluoro-1H-benzo[d]imidazol-1-yl)bicyclo[3.1.0]hexan-6-yl)propyl)-3-(oxetan-3-yl)urea]",< 5.30
26,"CC[C@@H](NC(=O)c1csc(C)n1)[C@H]1[C@@H]2C[C@@H](n3cnc4cc(F)c(F)cc43)C[C@@H]21 [Compound 309, N-((R)-1-((1R,3S,5S,6r)-3-(5,6-difluoro-1H-benzo[d]imidazol-1-yl)bicyclo[3.1.0]hexan-6-yl)propyl)-2-methylthiazole-4-carboxamide]",5.70 to 6.70
27,"CC[C@@H](NC(=O)c1ccc(Cl)cc1)[C@H]1[C@@H]2C[C@@H](Oc3cnnc4ccccc34)C[C@@H]21 [Compound 104, 4-chloro-N-((R)-1-((1R,3S,5S,6r)-3-(cinnolin-4-yloxy)bicyclo[3.1.0]hexan-6-yl)propyl)benzamide]",> 6.70
28,"COc1ccc(C(=O)NC(C)[C@H]2[C@@H]3C[C@@H](Oc4ncnc5cc(F)ccc45)C[C@@H]32)cn1 (stereo partly drawn) [Compound 124, N-(1-((1R,3s,5S,6r)-3-((7-fluoroquinazolin-4-yl)oxy)bicyclo[3.1.0]hexan-6-yl)ethyl)-6-methoxynicotinamide]",> 6.70
29,"O=C(Cc1ncc(Cl)cc1F)NC1C2CN(c3ccnc4ccc(F)cc34)CC21 (stereo not drawn) [Compound 112, 2-(5-chloro-3-fluoropyridin-2-yl)-N-(3-(6-fluoroquinolin-4-yl)-3-azabicyclo[3.1.0]hexan-6-yl)acetamide]",< 5.30
30,"CC[C@@H](NC(=O)c1ccc(F)cc1)[C@H]1[C@@H]2C[C@@H](n3cnc4cc(F)c(F)cc43)C[C@@H]21 [Compound 306, N—((R)-1-((3S,6s)-3-(5,6-difluoro-1H-benzo[d]imidazol-1-yl)bicyclo[3.1.0]hexan-6-yl)propyl)-4-fluorobenzamide]",> 6.70
